Experimental data: ChEMBL document CHEMBL1201862, “PubChem BioAssay data set” (2004)
The source made the active and inactive calls.

How the values were obtained:
[1] = HEK293T cell cytotoxicity, dose response, cytotoxicity control for HIV Vif inhibitor project, cherry-picks (AID 652208); type: functional, cell-based
[2] = biological target: T1, Photoreceptor-specific nuclear receptor (Homo sapiens, UniProt Q9Y5X4); type: functional, cell-based
[3] = biological target: G2/mitotic-specific cyclin-B1 (Homo sapiens, UniProt P14635); assay: G2/M cell cycle arrest in HeLa, late-stage follow-up, mechanism study for Wee1 degradation inhibitor project, FACS, panel member Cyclin B Degradation (AID 2088)
Wee1-like protein kinase = Wee1-like protein kinase (Homo sapiens, UniProt P30291); assay: G2/M cell cycle arrest in HeLa, late-stage follow-up, mechanism study for Wee1 degradation inhibitor project, FACS, panel member Wee1 Degradation (AID 2088)
[4] = biological target: T1, Photoreceptor-specific nuclear receptor; type: functional
[5] = biological target: Peroxisome proliferator-activated receptor gamma/Nuclear receptor corepressor 2 (Homo sapiens, UniProt P37231+Q9Y618); type: functional
[6] = biological target: Polyadenylate-binding protein 1 (Homo sapiens, UniProt P11940); assay: PABP poly(A) RNA binding inhibitors, primary screen, biochemical, fluorescence polarization, uHTS (AID 2014)
[7] = biological target: Eukaryotic translation initiation factor 4H (Homo sapiens, UniProt Q15056); assay: human eIF4H binding inhibitors, primary screen, translation initiation inhibitor project, biochemical, uHTS, fluorescence polarization (AID 2012)
[8] = biological target: T2, Methionyl-tRNA synthetase, putative (Trypanosoma brucei brucei, UniProt Q38C91); type: functional, Trypanosoma brucei brucei strain 927/4 GUTat10.1
T2 sequence (Q38C91 whole entry): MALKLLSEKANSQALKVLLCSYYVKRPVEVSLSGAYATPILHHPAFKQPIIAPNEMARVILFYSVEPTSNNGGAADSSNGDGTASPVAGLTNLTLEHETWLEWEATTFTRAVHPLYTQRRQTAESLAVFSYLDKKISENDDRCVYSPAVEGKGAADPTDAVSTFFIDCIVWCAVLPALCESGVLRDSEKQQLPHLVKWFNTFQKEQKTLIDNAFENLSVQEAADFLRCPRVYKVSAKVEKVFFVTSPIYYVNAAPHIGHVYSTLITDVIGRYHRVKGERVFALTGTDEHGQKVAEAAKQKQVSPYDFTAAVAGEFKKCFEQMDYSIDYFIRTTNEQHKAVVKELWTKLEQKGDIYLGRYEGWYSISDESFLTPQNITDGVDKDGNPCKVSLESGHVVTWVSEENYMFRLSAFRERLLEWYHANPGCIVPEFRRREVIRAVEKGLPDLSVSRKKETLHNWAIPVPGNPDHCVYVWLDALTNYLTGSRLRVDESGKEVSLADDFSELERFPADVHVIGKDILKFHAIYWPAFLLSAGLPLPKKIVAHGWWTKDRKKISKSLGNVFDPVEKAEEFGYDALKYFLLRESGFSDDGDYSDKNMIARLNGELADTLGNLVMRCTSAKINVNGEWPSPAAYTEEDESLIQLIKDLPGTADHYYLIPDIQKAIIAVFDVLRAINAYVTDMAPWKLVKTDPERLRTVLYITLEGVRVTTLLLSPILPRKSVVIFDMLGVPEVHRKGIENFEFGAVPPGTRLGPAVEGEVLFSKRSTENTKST

[9] = biological target: E3 ubiquitin-protein ligase UHRF1 (Homo sapiens, UniProt Q96T88); assay: Counterscreen for inhibitors of 5-meCpG-binding domain protein 2 (MBD2): TRFRET-based biochemical high throughput dose response assay to identify inhibitors of binding of ubiquitin-like with PHD and ring finger domains 1 (UHRF1) to methylated oligonucleotide.
[10] = biological target: Transitional endoplasmic reticulum ATPase (Homo sapiens, UniProt P55072); assay: p97 ATPase inhibitors, dose response, biochemical (AID 1534)
[11] = biological target: T2, Methionyl-tRNA synthetase, putative; type: functional, Trypanosoma brucei brucei strain 927/4 GUTat10.1; remark: listed apart in the source
[12] = biological target: Tyrosyl-DNA phosphodiesterase 2 (Homo sapiens, UniProt O95551); assay: human TDP2 enzyme inhibitors, dose response, biochemical, epi absorbance, IC50 (AID 743297)
Protein RecA = biological target: T3, Protein RecA (Mycobacterium tuberculosis, UniProt P9WHJ3); assay: Fluorescence Cell-Free Homogeneous Dose Retest to Identify Inhibitors of RecA-Intein Splicing Activity. [Related pubchem assays (depositor defined):AID2097, AID2223, AID489010, AID492950]; type: functional
T3 sequence (P9WHJ3 whole entry): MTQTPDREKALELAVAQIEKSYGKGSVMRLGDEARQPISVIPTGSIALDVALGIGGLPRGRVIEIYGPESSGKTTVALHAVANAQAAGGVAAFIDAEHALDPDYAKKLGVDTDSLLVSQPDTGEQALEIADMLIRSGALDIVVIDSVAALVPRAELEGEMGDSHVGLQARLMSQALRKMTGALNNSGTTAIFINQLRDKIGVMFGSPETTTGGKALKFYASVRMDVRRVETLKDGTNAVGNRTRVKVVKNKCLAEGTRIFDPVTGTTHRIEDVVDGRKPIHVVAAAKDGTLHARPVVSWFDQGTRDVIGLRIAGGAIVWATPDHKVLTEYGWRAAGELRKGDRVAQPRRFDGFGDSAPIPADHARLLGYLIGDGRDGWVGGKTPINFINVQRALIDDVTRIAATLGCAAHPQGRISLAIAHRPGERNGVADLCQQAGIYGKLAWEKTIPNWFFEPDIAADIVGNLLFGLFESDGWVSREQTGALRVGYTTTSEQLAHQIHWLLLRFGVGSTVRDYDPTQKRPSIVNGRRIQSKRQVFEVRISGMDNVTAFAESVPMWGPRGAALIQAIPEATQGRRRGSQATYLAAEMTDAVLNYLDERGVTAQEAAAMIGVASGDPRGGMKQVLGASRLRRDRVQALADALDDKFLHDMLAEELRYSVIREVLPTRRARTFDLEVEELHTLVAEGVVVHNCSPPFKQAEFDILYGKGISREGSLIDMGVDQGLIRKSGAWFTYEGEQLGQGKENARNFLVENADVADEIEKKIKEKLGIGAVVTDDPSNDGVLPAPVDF

[13] = biological target: T4, Replicative DNA helicase DnaB (Mycobacterium tuberculosis, UniProt P9WMR3); assay: DnaB intein splicing inhibitors, dose response, biochemical, cell-free fluorescence (AID 449749); type: functional
T4 sequence (P9WMR3 whole entry): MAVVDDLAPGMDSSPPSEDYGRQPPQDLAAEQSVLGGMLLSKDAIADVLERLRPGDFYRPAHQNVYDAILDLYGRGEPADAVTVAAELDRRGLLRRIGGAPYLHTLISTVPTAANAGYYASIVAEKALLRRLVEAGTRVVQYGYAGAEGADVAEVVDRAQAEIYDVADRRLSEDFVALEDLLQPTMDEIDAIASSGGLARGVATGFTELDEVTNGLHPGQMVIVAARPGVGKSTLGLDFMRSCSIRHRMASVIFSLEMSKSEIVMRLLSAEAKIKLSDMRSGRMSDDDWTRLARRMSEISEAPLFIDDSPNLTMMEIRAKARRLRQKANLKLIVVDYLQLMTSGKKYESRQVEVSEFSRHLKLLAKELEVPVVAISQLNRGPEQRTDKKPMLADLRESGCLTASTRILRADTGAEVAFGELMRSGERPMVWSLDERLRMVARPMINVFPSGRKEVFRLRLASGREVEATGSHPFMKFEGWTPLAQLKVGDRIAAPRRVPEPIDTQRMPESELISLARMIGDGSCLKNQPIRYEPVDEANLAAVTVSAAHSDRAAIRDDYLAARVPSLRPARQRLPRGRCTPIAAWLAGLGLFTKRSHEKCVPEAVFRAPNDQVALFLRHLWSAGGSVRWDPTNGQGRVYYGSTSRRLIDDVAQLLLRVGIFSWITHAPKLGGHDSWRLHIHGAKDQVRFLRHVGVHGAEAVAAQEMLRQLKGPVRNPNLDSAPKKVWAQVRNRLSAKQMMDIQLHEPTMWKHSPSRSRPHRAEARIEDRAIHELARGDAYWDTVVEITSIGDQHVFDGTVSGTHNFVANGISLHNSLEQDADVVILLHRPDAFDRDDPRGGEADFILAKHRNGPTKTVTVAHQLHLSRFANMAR

[14] = biological target: T5, Heat shock factor protein 1 (Mus musculus, UniProt P38532); assay: HSF1 potentiators in luciferase reporter cells, confirmation, cell-based, NIH3T3, luminescence, dose retest (AID 435004); type: functional;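 note: stress induced by proteasome inhibitor MG132 added 30 min after compound; luciferase reporter driven by HSF1 response element in NIH3T3 cells; actives raise luminescence as potentiators of the MG132 stress response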
T5 sequence (P38532 whole entry): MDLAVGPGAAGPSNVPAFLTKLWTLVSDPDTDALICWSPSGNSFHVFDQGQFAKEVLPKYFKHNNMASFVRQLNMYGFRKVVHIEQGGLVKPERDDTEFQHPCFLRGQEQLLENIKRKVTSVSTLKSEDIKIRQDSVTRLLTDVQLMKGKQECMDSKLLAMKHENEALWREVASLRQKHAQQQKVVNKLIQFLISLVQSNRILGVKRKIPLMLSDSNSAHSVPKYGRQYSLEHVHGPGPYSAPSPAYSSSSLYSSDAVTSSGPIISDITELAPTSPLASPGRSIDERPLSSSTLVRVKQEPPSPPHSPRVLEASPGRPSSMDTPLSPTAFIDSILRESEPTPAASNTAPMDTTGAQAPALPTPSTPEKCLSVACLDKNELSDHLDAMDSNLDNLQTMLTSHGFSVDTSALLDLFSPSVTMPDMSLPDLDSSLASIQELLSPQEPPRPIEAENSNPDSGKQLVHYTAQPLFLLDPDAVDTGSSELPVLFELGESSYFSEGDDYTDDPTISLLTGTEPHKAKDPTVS

[15] = Counterscreen for inhibitors of Trypanosoma brucei methionyl tRNA synthetase (MetRS): Luminescence-based cell-based high throughput dose response assay to identify compounds that are cytotoxic to Jurkat human T lymphocyte cells.; type: functional
[16] = biological target: Ras and Rab interactor 1/Tyrosine-protein kinase ABL1 (Homo sapiens, UniProt P00519+Q13671); type: functional;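 note: biochemical TR-FRET dose-response test measuring inhibition of binding between Rin1 and Abl proteins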
[17] = biological target: Transitional endoplasmic reticulum ATPase (Homo sapiens, UniProt P55072, C522A); assay: C522A mutant p97 ATPase inhibitors, dose response, counter-screen for p97 inhibitor project, biochemical, luminescence (AID 1544)
Aspartyl aminopeptidase = Aspartyl aminopeptidase (Plasmodium falciparum 3D7, UniProt Q8I2J3)
Procathepsin L = Procathepsin L (Homo sapiens, UniProt P07711)
[18] = biological target: Signal transducer and activator of transcription 3 (Homo sapiens, UniProt P40763); assay: STAT3 activators, late-stage profile, late-stage follow-up, cell-based, STAT1 reporter, BCL3 qPCR, cytotoxicity, panel member STAT3 Activation (AID 2049)
Sequence of Signal transducer and activator of transcription 3 (P40763 whole entry): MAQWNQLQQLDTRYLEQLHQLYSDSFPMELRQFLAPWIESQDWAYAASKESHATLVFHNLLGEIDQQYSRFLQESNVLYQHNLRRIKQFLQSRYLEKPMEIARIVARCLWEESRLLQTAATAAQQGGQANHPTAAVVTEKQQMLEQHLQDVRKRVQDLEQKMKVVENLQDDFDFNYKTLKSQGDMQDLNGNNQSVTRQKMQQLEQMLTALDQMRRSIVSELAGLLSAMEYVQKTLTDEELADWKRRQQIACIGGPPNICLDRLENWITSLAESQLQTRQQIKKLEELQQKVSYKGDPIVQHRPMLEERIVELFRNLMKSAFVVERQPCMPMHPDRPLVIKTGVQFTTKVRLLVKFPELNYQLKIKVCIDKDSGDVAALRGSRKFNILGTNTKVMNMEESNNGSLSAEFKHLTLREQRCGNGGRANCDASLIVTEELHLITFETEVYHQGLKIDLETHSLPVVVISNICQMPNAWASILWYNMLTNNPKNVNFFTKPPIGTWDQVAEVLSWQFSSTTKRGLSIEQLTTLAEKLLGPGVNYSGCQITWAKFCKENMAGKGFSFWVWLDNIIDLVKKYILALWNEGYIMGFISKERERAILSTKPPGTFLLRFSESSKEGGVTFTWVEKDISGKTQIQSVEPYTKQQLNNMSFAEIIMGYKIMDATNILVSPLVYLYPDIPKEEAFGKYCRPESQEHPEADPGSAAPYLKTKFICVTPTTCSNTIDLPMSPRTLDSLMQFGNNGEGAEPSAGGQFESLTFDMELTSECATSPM

T1 sequence (Q9Y5X4 whole entry): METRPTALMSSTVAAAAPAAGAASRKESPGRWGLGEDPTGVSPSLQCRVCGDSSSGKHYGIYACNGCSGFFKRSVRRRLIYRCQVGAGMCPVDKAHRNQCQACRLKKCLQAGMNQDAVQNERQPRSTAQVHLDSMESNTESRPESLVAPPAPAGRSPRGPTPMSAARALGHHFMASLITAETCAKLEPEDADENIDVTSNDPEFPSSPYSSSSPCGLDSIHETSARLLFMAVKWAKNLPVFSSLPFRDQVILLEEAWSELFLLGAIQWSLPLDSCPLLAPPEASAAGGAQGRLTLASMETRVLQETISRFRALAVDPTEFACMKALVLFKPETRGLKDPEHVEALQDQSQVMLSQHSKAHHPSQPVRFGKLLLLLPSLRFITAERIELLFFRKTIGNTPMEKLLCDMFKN
Sequence of Polyadenylate-binding protein 1 (P11940 whole entry): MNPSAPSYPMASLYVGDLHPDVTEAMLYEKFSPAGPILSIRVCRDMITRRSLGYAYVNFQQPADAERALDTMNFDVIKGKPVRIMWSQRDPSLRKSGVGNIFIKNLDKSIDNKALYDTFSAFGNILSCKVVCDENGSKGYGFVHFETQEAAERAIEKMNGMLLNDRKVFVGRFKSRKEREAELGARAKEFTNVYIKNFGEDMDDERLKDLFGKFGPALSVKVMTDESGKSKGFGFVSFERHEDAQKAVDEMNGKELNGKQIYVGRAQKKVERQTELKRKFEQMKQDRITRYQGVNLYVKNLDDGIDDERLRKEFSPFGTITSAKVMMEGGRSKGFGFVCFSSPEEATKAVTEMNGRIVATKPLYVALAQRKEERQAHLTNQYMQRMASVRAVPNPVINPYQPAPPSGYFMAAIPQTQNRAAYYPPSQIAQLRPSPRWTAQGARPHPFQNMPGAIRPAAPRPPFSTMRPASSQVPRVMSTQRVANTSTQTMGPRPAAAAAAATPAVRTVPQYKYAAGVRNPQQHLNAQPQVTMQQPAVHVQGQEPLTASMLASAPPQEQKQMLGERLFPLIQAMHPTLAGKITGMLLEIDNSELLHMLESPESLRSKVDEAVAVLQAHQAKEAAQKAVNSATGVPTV
Sequence of Peroxisome proliferator-activated receptor gamma/Nuclear receptor corepressor 2 (P37231 whole entry): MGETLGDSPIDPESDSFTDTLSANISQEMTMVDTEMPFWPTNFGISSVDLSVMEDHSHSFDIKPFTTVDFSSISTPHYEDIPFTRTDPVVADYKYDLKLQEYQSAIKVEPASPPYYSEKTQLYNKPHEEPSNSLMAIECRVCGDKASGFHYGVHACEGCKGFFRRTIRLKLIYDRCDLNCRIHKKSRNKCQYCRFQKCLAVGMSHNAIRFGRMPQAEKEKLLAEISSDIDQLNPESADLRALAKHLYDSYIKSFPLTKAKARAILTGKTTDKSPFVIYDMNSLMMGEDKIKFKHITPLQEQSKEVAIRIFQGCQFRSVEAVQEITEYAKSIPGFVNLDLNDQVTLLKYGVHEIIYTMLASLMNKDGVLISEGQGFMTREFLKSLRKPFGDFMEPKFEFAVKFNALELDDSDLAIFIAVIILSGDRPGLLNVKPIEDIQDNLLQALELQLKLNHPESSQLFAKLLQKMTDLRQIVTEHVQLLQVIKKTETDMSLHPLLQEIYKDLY
Sequence of Peroxisome proliferator-activated receptor gamma/Nuclear receptor corepressor 2 (Q9Y618 whole entry): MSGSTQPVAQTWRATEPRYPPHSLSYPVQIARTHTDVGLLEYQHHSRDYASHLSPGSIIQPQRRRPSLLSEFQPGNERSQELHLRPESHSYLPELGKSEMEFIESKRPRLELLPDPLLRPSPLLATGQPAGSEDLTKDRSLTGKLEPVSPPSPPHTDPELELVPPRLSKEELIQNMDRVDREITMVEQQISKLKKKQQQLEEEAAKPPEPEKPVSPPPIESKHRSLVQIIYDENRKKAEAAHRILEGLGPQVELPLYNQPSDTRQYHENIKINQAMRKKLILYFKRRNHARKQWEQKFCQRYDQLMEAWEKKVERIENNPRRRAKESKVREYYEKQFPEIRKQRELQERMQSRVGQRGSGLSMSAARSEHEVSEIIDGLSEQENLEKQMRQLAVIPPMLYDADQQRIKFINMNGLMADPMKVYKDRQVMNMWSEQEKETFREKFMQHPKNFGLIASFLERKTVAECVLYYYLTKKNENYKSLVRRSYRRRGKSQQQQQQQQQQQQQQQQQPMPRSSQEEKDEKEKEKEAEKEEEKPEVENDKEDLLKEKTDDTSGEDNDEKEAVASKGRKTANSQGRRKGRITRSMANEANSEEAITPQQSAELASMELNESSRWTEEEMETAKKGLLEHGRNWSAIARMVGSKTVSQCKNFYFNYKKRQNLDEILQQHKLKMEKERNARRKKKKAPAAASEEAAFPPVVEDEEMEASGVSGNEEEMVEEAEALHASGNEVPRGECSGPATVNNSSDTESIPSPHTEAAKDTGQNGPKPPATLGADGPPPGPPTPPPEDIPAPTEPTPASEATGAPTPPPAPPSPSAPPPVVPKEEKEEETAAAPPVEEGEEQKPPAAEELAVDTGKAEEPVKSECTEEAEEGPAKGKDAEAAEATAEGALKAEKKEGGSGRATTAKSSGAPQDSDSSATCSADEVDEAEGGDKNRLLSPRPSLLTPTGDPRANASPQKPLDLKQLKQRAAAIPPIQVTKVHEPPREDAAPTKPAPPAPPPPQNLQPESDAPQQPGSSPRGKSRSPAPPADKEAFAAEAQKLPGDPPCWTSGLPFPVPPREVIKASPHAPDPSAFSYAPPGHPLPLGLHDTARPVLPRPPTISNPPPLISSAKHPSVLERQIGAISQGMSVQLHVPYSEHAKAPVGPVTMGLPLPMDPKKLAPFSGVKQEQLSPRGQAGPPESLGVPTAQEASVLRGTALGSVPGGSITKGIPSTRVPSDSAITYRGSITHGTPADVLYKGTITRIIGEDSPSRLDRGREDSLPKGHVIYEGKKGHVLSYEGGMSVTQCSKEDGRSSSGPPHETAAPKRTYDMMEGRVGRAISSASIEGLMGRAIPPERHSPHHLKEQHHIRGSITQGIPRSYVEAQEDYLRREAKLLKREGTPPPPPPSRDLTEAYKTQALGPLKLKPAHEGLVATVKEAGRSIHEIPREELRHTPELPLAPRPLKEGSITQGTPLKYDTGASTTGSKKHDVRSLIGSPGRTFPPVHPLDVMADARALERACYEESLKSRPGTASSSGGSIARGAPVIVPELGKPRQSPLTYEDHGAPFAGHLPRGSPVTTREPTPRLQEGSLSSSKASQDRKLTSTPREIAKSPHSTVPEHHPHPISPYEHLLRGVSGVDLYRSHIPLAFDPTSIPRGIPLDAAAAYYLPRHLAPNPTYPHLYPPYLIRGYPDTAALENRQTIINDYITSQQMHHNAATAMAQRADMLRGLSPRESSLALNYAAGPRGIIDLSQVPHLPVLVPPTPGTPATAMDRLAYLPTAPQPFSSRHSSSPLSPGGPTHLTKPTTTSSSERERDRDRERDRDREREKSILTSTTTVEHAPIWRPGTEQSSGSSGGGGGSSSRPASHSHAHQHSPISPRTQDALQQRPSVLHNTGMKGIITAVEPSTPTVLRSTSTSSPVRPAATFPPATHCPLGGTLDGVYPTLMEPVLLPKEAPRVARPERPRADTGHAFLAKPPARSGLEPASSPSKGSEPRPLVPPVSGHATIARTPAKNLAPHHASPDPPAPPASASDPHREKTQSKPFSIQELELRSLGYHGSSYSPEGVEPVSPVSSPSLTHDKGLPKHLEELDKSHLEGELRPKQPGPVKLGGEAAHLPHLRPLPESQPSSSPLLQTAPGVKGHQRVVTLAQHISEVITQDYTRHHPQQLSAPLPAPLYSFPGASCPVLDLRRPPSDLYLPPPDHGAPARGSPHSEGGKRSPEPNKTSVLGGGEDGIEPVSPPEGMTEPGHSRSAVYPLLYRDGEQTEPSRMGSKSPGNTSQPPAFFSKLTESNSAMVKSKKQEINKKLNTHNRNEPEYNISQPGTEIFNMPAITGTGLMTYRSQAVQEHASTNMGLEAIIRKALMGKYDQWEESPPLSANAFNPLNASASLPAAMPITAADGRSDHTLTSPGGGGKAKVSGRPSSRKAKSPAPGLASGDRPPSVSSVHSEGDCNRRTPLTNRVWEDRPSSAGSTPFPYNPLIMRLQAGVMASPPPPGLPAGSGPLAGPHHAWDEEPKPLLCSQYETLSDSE

## Cc1ccnc(NC(=O)CCCOc2cc(=O)n(C)c3ccccc23)c1
[1]
  AC50: > 52 µM (inactive)
[2]
  IC50: 2.97 µM (active)
[3]
  EC50: > 55.7 µM (inactive)
Wee1-like protein kinase
  EC50: > 6.19 µM (active)

## O=C(C1=C(O)C(=O)N(CC2CCCO2)C1c1ccc(Cl)cc1Cl)c1ccco1 (configuration not stated)
[4]
  IC50: > 39.8 µM (not active)
[5]
  IC50: 13.7 µM (not active)

## CCN(CC)CCCN=C1N[C@@H](c2ccccc2)C(C(=O)OC)=C(C)N1CC
[6]
  IC50: 10.6 µM (active)
[7]
  IC50: > 100 µM (inactive)

## O=S(=O)(Nc1cc2nc3ccccc3nc2n1Cc1ccccc1)c1ccc(Cl)cc1
[8]
  IC50: 2.46 µM (active)
[9]
  IC50: > 43.8 µM (inactive)
[10]
  IC50: > 50 µM (not active)
[11]
  IC50: 4.93 µM (active)
[12]
  IC50: > 14.3 µM (inactive)
Protein RecA
  EC50: 1.5 µM (active)
[13]
  AC50: 10.1 µM (active)
[14]
  EC50: > 260 µM (inactive)
[15]
  IC50: 28.8 µM (inactive)
[16]
  IC50: > 73.5 µM (inactive)
[17]
  IC50: > 50 µM (not active)

## O=C(NC(=S)Nn1cnnc1)c1ccccc1Br
Aspartyl aminopeptidase
  IC50: 1.5 µM (active)
Procathepsin L
  IC50: > 59.6 µM (not active)

## COc1cc(OC)c(NC(=O)c2cc(CN3CCCC3)on2)cc1Cl
[18]
  EC50: > 55.7 µM (inactive)
